ChEMBL document CHEMBL3259697, “Identification of type II and III DDR2 inhibitors” (J Med Chem, 2014)
The source made the active and inactive calls. The rule behind the calls is not given here.

How the values were obtained:
[1] = molecular target: Discoidin domain-containing receptor 2 (Homo sapiens, UniProt Q16832, T654M); assay: Inhibition of DDR2 T654M mutant (unknown origin) preincubated for 30 mins before substrate addition by FRET assay
[2] = molecular target: T1, Discoidin domain-containing receptor 2 (Homo sapiens, UniProt Q16832)
T1 sequence (Q16832 whole entry): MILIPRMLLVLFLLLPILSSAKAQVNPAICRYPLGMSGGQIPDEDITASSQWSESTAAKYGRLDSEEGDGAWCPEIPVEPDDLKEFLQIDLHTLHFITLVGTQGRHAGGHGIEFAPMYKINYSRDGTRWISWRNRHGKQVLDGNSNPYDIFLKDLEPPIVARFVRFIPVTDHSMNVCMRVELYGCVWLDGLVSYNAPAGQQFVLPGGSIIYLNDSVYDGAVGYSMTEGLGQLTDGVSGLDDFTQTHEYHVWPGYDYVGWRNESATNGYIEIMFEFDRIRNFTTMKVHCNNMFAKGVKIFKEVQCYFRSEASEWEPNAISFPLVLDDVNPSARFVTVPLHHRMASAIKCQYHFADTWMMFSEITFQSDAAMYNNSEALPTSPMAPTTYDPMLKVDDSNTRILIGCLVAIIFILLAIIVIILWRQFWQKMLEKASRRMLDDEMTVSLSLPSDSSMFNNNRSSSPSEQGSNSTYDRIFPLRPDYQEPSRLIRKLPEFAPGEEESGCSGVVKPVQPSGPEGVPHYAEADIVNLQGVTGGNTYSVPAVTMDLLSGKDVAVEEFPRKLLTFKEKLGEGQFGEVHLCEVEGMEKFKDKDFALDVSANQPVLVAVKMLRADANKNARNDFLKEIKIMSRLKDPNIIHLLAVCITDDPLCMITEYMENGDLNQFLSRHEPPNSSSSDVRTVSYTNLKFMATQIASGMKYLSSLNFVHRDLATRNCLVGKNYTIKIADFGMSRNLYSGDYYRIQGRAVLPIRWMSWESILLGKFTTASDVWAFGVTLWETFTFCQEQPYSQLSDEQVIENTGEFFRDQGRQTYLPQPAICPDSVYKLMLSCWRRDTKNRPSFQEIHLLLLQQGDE
Description: Inhibition of wild type DDR2 (unknown origin) preincubated for 30 mins before substrate addition by FRET assay

[3] = molecular target: T1, Discoidin domain-containing receptor 2; remark: listed apart in the source
Description: Binding affinity to human acrylodan-labeled N-terminal His-tagged DDR2 (558 to 855 aa) by FLiK assay

[4] = molecular target: T1, Discoidin domain-containing receptor 2; assay: Inhibition of DDR2 (unknown origin) after 120 mins by radiometric assay in presence of gamma-[33P]-ATP
[5] = molecular target: Epithelial discoidin domain-containing receptor 1 (Homo sapiens, UniProt Q08345); assay: Inhibition of DDR1 (unknown origin) after 120 mins by radiometric assay in presence of gamma-[33P]-ATP
[6] = molecular target: T2, Discoidin domain-containing receptor 2 (Homo sapiens) (UniProt Q16832); assay: Reversible binding affinity to human acrylodan-labeled N-terminal His-tagged DDR2 (558 to 855 aa) at 100 nM by fluorescence spectroscopy
T2 sequence (whole entry): T1 sequence (Q16832 whole entry)

[7] = molecular target: T1, Discoidin domain-containing receptor 2; assay: Binding affinity to human DDR2 by Ambit assay
[8] = molecular target: T1, Discoidin domain-containing receptor 2; assay: Binding affinity to human acrylodan-labeled N-terminal His-tagged DDR2 (558 to 855 aa) by fluorescence spectroscopy

Discoidin domain-containing receptor 2 (Homo sapiens, UniProt Q16832, T654M), sequence (Q16832 22-855 T654M limits assumed): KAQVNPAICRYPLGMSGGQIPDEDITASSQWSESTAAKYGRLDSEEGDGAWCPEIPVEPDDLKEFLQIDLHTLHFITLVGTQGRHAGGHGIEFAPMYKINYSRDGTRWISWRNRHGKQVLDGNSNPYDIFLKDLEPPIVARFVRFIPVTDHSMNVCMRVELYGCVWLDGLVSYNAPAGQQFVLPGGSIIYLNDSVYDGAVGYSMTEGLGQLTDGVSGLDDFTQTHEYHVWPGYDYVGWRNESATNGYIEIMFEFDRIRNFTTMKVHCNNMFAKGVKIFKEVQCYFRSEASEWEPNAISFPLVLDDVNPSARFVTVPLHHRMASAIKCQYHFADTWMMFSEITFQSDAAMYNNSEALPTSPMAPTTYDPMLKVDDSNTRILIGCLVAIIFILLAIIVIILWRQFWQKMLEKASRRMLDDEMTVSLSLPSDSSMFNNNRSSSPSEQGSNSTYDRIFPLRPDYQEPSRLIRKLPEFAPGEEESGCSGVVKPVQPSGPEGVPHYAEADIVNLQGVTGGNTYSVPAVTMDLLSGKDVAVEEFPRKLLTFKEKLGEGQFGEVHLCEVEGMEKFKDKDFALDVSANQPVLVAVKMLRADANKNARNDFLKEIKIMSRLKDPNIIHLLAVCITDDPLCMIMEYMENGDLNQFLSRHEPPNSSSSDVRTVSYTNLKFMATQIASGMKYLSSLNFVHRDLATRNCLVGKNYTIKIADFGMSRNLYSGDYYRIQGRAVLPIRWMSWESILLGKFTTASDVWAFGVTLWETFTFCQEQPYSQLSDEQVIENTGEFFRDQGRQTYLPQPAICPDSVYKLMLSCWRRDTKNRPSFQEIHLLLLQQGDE
Epithelial discoidin domain-containing receptor 1, sequence (Q08345 whole entry, the tested form may be a part): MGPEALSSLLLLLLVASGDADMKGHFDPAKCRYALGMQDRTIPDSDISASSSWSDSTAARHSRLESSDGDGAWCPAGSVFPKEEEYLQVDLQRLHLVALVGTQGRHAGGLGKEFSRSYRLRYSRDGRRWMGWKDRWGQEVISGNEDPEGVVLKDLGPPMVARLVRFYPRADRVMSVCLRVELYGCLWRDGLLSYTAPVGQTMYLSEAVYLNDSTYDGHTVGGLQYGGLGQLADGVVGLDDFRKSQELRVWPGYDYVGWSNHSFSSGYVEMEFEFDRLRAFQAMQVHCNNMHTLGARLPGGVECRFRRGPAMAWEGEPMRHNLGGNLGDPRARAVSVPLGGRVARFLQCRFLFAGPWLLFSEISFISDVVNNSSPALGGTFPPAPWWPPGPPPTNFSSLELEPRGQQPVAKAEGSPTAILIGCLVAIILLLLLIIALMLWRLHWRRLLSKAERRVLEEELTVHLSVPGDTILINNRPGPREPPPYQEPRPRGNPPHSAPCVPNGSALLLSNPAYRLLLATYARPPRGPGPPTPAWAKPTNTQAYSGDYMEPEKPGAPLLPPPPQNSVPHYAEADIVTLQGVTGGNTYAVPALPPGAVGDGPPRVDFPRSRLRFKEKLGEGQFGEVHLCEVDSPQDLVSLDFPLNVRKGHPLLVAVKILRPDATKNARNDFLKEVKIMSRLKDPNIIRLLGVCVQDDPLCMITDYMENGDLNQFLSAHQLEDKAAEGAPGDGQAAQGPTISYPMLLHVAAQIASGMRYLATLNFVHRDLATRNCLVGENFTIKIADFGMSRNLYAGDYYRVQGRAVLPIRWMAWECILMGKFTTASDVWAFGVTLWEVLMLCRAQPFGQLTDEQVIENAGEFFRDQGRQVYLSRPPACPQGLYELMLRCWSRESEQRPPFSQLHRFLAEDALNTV

Row | SMILES | IC50 [1] [µM] | IC50 [2] [µM] | Kd [3] [µM] | IC50 [4] [µM] | IC50 [5] [µM] | Activity [6] | Kd [7] [µM] | Kd [8] [µM]
1 | Nc1c(-c2ccccc2)oc2ccccc2c1=O | ≥ 100 | 80.8 | > 1 |  |  |  |  | 
2 | CC(C)(C)c1cc(NC(=O)Nc2ccc(Cl)cc2)n(-c2cccc([N+](=O)[O-])c2)n1 | 1.23 | 0.856 | 0.412 |  |  |  |  | 
3 | CC(C)(C)c1cc(NC(=O)Nc2nccs2)n(-c2ccc(CC(=O)O)cc2)n1 | 0.82 | 9.17 | > 1 |  |  |  |  | 
4 | Cc1ccc(-n2nc(C(C)(C)C)cc2NC(=O)Nc2nccs2)cc1 | 1.15 | 4.7 | 0.702 |  |  |  |  | 
5 | CC(C)(C)c1cc(NC(=O)Nc2ccc(OCCN3CCOCC3)c3ccccc23)n(-c2cccc(N)c2)n1 | 0.072 | 0.008 | 0.02 |  |  |  |  | 
6 | CC(C)(C)c1cc(NC(=O)Nc2cccc(Nc3ncnc4ccccc34)c2)n(-c2cccc(N)c2)n1 | 0.073 | 0.002 | > 1 | 0.075 |  |  |  | 
7 | CCOCCNc1cccc(-n2nc(C(C)(C)C)cc2NC(=O)Nc2ccc(OCCN3CCOCC3)c3ccccc23)c1 |  | 14.4 | > 1 |  |  |  |  | 
8 | CSc1ccc(-c2nc3cnccn3c2NC2CCCCC2)cc1 |  |  | > 1 |  |  |  |  | 
9 | O=C(O)Cc1cccc(-n2nc(C3CCCC3)cc2NC(=O)Nc2nc(CCOCc3ccccc3)cs2)c1 | 0.38 | 1.56 | 0.385 |  |  |  |  | 
10 | CC(C)(C)c1cc(NC(=O)Nc2ccccc2)n(-c2cccc(N)c2)n1 | 2.5 | 9.41 | > 1 |  |  |  |  | 
11 | O=C(O)Cc1ccc(-n2nc(C3CCCC3)cc2NC(=O)Nc2nc(CCOCc3ccccc3)cs2)cc1 | 1.84 | 2.17 | > 1 |  |  |  |  | 
12 | Cc1ccc(-n2nc(C(C)(C)C)cc2NC(=O)Nc2nc(CCOCc3ccc(F)cc3)cs2)cc1 | 0.23 | 3.04 | 0.406 |  |  |  |  | 
13 | CC(C)(C)c1cc(NC(=O)Nc2cccc3ccccc23)n(-c2cccc([N+](=O)[O-])c2)n1 | ≥ 100 | 0.332 | 0.428 |  |  |  |  | 
14 | CC(C)(C)c1cc(NC(=O)Nc2nc(CCOCc3ccccc3)cs2)n(-c2ccc(CC(=O)O)cc2)n1 | 0.67 | 2.23 | 0.382 |  |  |  |  | 
15 | CC(C)(C)c1cc(NC(=O)Nc2nc(CCOCc3ccccc3)cs2)n(-c2cccc(CC(=O)O)c2)n1 | 1.67 | 10.7 | > 1 |  |  |  |  | 
16 | O=C(Nc1ccc(OCCN2CCOCC2)c2ccccc12)c1cc(F)cc(N2CCOCC2)c1 |  | 10.9 | 0.915 |  |  |  |  | 
17 | Cc1cccc(-n2nc(C(C)(C)C)cc2NC(=O)Nc2ccc(Cl)cc2)c1 | 0.808 | 0.183 | 0.015 |  |  |  |  | 
18 | Cc1ccc(-n2nc(C(C)(C)C)cc2NC(=O)Nc2cccc3ccccc23)cc1 | ≥ 100 | 0.408 | 0.252 |  |  |  |  | 
19 | CCC(=O)Nc1cccc(-n2nc(C(C)(C)C)cc2NC(=O)Nc2ccc(OCCN3CCOCC3)c3ccccc23)c1 | 0.687 | 0.029 | 0.03 |  |  |  |  | 
20 | NC(=O)c1c(OCc2c(F)cc(Br)cc2F)nsc1NC(=O)NCCCCN1CCCC1 [OSI-632] | 0.45 | 0.024 | 0.422 |  |  |  |  | 
21 | Cc1ccc(-n2nc(C(C)(C)C)cc2NC(=O)Nc2nc(CCOCc3ccncc3)cs2)cc1 | 0.002 | 0.019 | 0.063 | 0.065 | 0.068 |  |  | 
22 | CC(C)(C)c1cc(NC(=O)Nc2ccc(Cl)cc2)n(-c2cccc(N)c2)n1 | 0.717 | 0.558 | 0.015 |  |  | Active | 0.015 | 0.0038
23 | CC(C)(C)c1cc(NC(=O)Nc2nc(CCOCc3ccc(F)cc3)cs2)n(-c2ccc(CC(=O)O)cc2)n1 | 0.076 | 1.23 | 0.424 |  |  |  |  | 
24 | CC(C)(C)c1cc(NC(=O)Nc2ccc(Nc3ncnc4ccccc34)cc2)n(-c2cccc(N)c2)n1 | 0.001 | 0.003 | 0.093 | 0.018 |  |  |  | 
25 | COc1ccccc1NC(=O)c1sc2nc(C)c(C(=O)Nc3ccc(C)cc3C)c(-c3ccc(NC(C)=O)cc3)c2c1N |  |  | > 1 |  |  |  |  | 
